Holding throughout (assay type): ADME
One data set concerns Liver microsome. Nature of the data set: Drug level in pooled human liver microsomes treated with clozapine at 100 uM after 30 mins by HPLC analysis. The note with it: 0.5 h. On the technique in general: Microsomes from liver hold many membrane-bound enzymes, among them those of drug oxidation.
Substrate in data set [1]: CN1CCN(C2=Nc3cc(Cl)ccc3Nc3ccccc32)CC1
Nature of the data set: Drug metabolism in supersomes expressing human recombinant CYP2D6 assessed as enzyme-mediated N-demethyl clozapine metabolite formation after 15 mins by Michaelis-Menten equation analysis.

Substrate in data set [2]: CN1CCN(C2=Nc3cc(Cl)ccc3Nc3ccccc32)CC1
As to the kind of experiment: Drug metabolism in supersomes expressing human recombinant CYP2D6 assessed as enzyme-mediated total GSH conjugate formation after 15 mins by Michaelis-Menten equation analysis.

Substrate in data set [3]: CN1CCN(C2=Nc3cc(Cl)ccc3Nc3ccccc32)CC1
As to the kind of experiment: Drug metabolism in supersomes expressing human recombinant CYP2D6 assessed as enzyme-mediated clozapine N-oxide metabolite formation after 15 mins by Michaelis-Menten equation analysis.

For `CN1CCN(C2=Nc3c(ccc(Cl)c3O)Nc3ccccc32)CC1`, the Drug metabolism entry in the data set on Liver microsome is “metabolite_detected”.

For `Clc1ccc2c(c1)N=C(N1CCNCC1)c1ccccc1N2` [N-DESMETHYLCLOZAPINE], in the data set with Liver microsome, the Drug metabolism entry is given as “metabolite_detected”.

As for `NCCNC1=Nc2cc(Cl)ccc2Nc2ccccc21`, the Drug metabolism result with Liver microsome is on record as “metabolite_detected”.

On to `CNCCNC1=Nc2cc(Cl)ccc2Nc2ccccc21`, for which, in the data set on Liver microsome, the Drug metabolism entry is reported as “metabolite_detected”.

For `CN1CCN(C2=Nc3cc(Cl)c(O)cc3Nc3ccccc32)CC1`, in the data set on Liver microsome, the Drug metabolism entry is listed as “metabolite_detected”.

As to `C[N+]1([O-])CCN(C2=Nc3cc(Cl)ccc3Nc3ccccc32)CC1`, the Drug metabolism result with Liver microsome is reported as “metabolite_detected”.

B1: Cytochrome P450 2D6 (Homo sapiens) (protein)
chain: MGLEALVPLAVIVAIFLLLVDLMHRRQRWAARYPPGPLPLPGLGNLLHVDFQNTPYCFDQLRRRFGDVFSLQLAWTPVVVLNGLAAVREALVTHGEDTADRPPVPITQILGFGPRSQGVFLARYGPAWREQRRFSVSTLRNLGLGKKSLEQWVTEEAACLCAAFANHSGRPFRPNGLLDKAVSNVIASLTCGRRFEYDDPRFLRLLDLAQEGLKEESGFLREVLNAVPVLLHIPALAGKVLRFQKAFLTQLDELLTEHRMTWDPAQPPRDLTEAFLAEMEKAKGNPESSFNDENLRIVVADLFSAGMVTTSTTLAWGLLLMILHPDVQRRVQQEIDDVIGQVRRPEMGDQAHMPYTTAVIHEVQRFGDIVPLGVTHMTSRDIEVQGFRIPKGTTLITNLSSVLKDEAVWEKPFRFHPEHFLDAQGHFVKPEAFLPFSAGRRACLGEPLARMELFLFFTSLLQHFSFSVPTGQPRPSHHGVFAFLVSPSPYELCAVPR
Turning to B1, the results for the Km in data set [1], in data set [2] and in data set [3] were 25.3 µM, 21.9 µM and 84.1 µM, respectively.

The values above are taken from ChEMBL document CHEMBL3525934 (Drug Metab Dispos, 2013).
